Measurements taken from patent US12403184B2, “Compositions and methods for treating neurodegenerative disroders” (priority 2018, dated 2025).
Where no end group is shown, it is not given here.

Columns and labels:
[1] = tested on: striatum of R6/2 and YAC128 mice; test: Western blot of striatal proteins in treated HD mice; format: in vivo, mouse; details: for TFAM protein level / mtCO2 protein level: striatal mitochondria
Description: Cells were washed with cold phosphate-buffered saline (PBS) and incubated on ice in mitochondrial lysis buffer (250 mM sucrose, 20 mM HEPES-NaOH, pH 7.5, 10 mM KCl, 1.5 mM MgCl2, 1 mM EDTA, 1 mM EGTA, protease inhibitor cocktail, and phosphatase inhibitor cocktail) for 30 min. The cells were scraped and then disrupted 15 times by repeated aspiration through a 25-gauge needle. Mouse brains were minced and homogenized in mitochondrial lysis buffer to release mitochondria. The homogenates were spun at 800×g for 10 min at 4° C., and the resulting supernatants were spun at 12,000×g for 20 min at 4° C. The pellets were washed with lysis buffer and spun at 12,000×g again for 20 min at 4° C. The final pellets were suspended in lysis buffer containing 1% Triton X-100 and were mitochondrial-rich lysate fractions. The mitochondrial protein voltage-dependent anion channel (VDAC) was used as a loading control.
Protein concentration was measured by protein assay dye reagents (Bio-rad). The protein was resuspended in Laemmli buffer, loaded on SDS-PAGE, and transferred onto nitrocellulose membranes. Membranes were probed with the indicated antibodies, followed by visualization with ECL. Representative blots have been cropped for presentation.
Systemic peptide treatment in HD mice. All randomization and peptide treatments were prepared by an experimenter not associated with behavioral and neuropathology analysis. Male R6/2 mice (Tg) and their age-matched wild-type littermates (Wt) (6-week-old) were implanted with a 28-day osmotic pump (Alzet, Cupertino CA, Model 2004) containing TAT control peptide or DA1 peptide, which delivered peptides at a rate of 1 mg/kg/day. Male YAC128 mice (Tg) and their age-matched wild-type littermates (WT) were treated with TAT control peptide or DA1 peptide (1 mg/kg/day) by Alzet osmotic pump starting from the age of 3 months. The pump was replaced once every month.

[2] = tested on: mtDNA; test: mtDNA content in plasma of YAC128 mice by qPCR; format: in vivo, mouse; details: YAC128 mice at the age of 6 months
Description: For isolation of DNA from mouse plasma, the QIAamp DNA Blood Mini Kit (QIAGEN) was used. Briefly, 100-200 μl mouse plasma was subjected to total DNA extraction. Then the eluted DNA was diluted (1:5) to perform the qPCR experiment.

[3] = tested on: neurons derived from HD patient-iPS cells; test: Mitochondrial and neuronal morphology in neurons derived from iPS cells; format: cell-based, human
Description: iPS cells from a normal subject and a HD patient (carrying 41 CAG repeats) were differentiated into neurons using the protocol from our previous studies. Briefly, the iPS cells were plated onto 6-well plates precoated with 2.5% Matrigel and allowed to reach 90% confluence in feeder-free medium. For the first 10 days, the cells were treated with SB431542 (10 μM; Tocris Bioscience) and Noggin (100 ng/ml) in Neural Media (NM) containing Neurobasal and DMEM (1:1), B-27 supplement minus vitamin A (50×, Invitrogen), N2 supplement (100×, Invitrogen), GlutaMax (Invitrogen, 100×), FGF2 ([…]) and EGF ([…]), and 100 units/ml penicillin and 100 μg/ml streptomycin). For the next 10 days, the cells were treated with human recombinant Sonic hedgehog (SHH, 200 ng/ml), DKK1 (100 ng/ml) and BDNF (20 ng/ml), and 10 μM Y27632 (Sigma) in neuronal differentiation medium containing Neurobasal and DMEM (1:3), B27, N2, GlutaMax, and PS. Cells were then switched to treatment with BDNF (20 ng/ml), ascorbic acid (200 μM, Sigma-Aldrich), cAMP (0.5 mM, Sigma-Aldrich), and Y27632 (10 μM) in neuronal differentiation medium. All growth factors were purchased from PeproTech (Rocky Hill, NJ, USA). Twenty days after the initiation of differentiation, the neurons (about 5000 cells) were plated onto 12-mm poly-Dlysine/laminine-coated coverslips and grown in 24-well plates in neuronal differentiation medium.
Neurons derived from iPS cells were stained with anti-Tom20 (a mitochondrial marker) and anti-GAD67 (a striatal neuronal marker). Quantitation of mitochondrial length along the neurites was conducted only in the neurons immuno-positive for GAD67. To analyze dendrite and axon outgrowth of neurons, cells were stained with anti-MAP2 (a dendritic marker) and anti-GAD67 or anti-Tau (an axonal marker) and anti-DARPP32 (a medium spiny neuron marker). The length of MAP2+ dendrite and Tau+ axon in the neurons immuno-positive for GAD67 or DARPP32 was quantitated, respectively. At least 50 neurons/group were counted.

[4] = YAC128 mice, 12 months old, striatal extracts
[5] = striatal neurons derived from HD patient iPS cells

YGRKKRRQRRRGGEDKRKT-NH2 [DA1, YGRKKRRQRRR-GG-EDKRKT-NH2]
TFAM protein level ([1]; R6/2 mice, 12 weeks old): corrected | mtCO2 protein level ([1]; R6/2 mice, 12 weeks old): corrected | nuclear-encoded mitochondrial proteins ([1]; YAC128 and wildtype mice, 6 months old, striatal mitochondrial lysates): no observable effects | TFAM protein level ([1]; YAC128 mice, 6 months old): corrected | mtCO2 protein level ([1]; YAC128 mice, 6 months old): corrected | DARPP-32 protein level [1, 4]: increased | PSD95 protein level [1, 4]: increased | PGC1α protein levels ([1]; YAC128 mouse striatum, until 12 months of age): increased | increase of plasma mtDNA content [2]: abolished | mitochondrial morphology ([3]; cells derived from iPS cells of normal subject): no observed effects | length of mitochondria along the neurites of GAD67+-neurons ([3]; neurons derived from HD patient-iPS cells): increased | MAP2+ dendritic outgrowth [3, 5]: improved | Tau+ axonal outgrowth [3, 5]: improved
